According to US20200277278A1, “Deuterium Atom-Substituted Indole Formamide Derivative, Preparation Method Therefor, and Medical Applications Thereof” (Jiangsu Hengrui Medicine Co., Ltd., priority 2017, published 2020):
Read-outs that look alike come from different tables or passages of the source.

Tests used:
IL-17A = IL-17A enzyme-linked immune quantitative assay in cytostim-activated human PBMC; type: cell-based; conditions: 72 h, 3 days
Protocol: Frozen human peripheral blood mononuclear cells (PBMC) were rapidly resuscitated in pre-warmed lymphocyte culture medium, and centrifuged at 1000 rpm for 10 min. The cell culture supernatant was removed. The cells were gently suspended in TexMACS medium and counted. The T cell activation reagent cytostim (10 μl/ml) was added in proportion to the cell suspension. Then, the cells were seeded in a 96-well cell culture plate at a density of 1×10^5 peripheral blood mononuclear cells/well. The test compounds were diluted in gradient with TexMACS medium, and added respectively to the test wells, with 2-3 parallel wells per group. A negative control well containing only cells without cytostim was provided to obtain the background reading. The cell culture plate was placed in a incubator at 5% carbon dioxide, 37° C. to incubate for 3 days. The cell culture supernatant was collected 3 days after drug treatment, and centrifuged to remove the suspension. Then, IL-17A in the supernatant was quantified with IL-17A enzyme-linked immunosorbent kit. EC50 values of the test compounds were calculated with GraphPad Prism 6.0.

[1] = Pharmacokinetics assay in mice; type: in vivo; conditions: female, mouse, po, C57 mice, intragastric, 2 mg/kg; for Vd/F: read-out: Apparent distribution volume Vz/F; for AUC: read-out: Area under curve AUC; for CL/F: read-out: Clearance CLz/F; for half-life: read-out: Half-life T½ (converted); for Cmax: read-out: Plasma concentration Cmax; for MRT: read-out: Residence time MRT
Protocol: Mice were used as test animals. […] The pharmacokinetic behavior of the compounds of the present invention was studied and evaluated in mice. A group of eighteen C57 mice (female, equally divided into two groups) were purchased from Shanghai Jiesijie Laboratory Animal Co., LTD, with Certificate No.: SCXK (Shanghai) 2013-0006. A certain amount of the test compound was weighed, and added with 5% by volume of DMSO, 5% by volume of tween 80 and 90% by volume of normal saline to prepare a 0.1 mg/mL colorless, clear and transparent solution. […] The samples were stored in heparinized tubes, and centrifuged for 10 minutes at 3500 rpm to separate the blood plasma. The plasma samples were stored at −20° C. The content of the test compound in the plasma of mice after intragastrical administration of the test compound at different concentrations was determined: 25 μL of mouse plasma at each time after administration was taken, added with 80 μL of the internal standard solution of camptothecin (100 ng/mL) and 200 μL of acetonitrile, vortex-mixed for 5 minutes, and centrifuged for 10 minutes (3600 rpm). 1 μL of the supernatant was taken from the plasma samples for LC/MS/MS analysis.

MC38 colorectal tumor = assay: Efficacy in isotype MC38 colorectal tumor mice model; type: in vivo, C57BL/6 mice
Protocol: Female C57BL/6 mice (20-25 gram, 7-9 weeks old) were used in the experiment. In vivo antitumor activity of the compound of Example 1 administered alone or the compound of Example 1 administered in combination with anti-mouse PD-1 antibody was evaluated by detecting the growth of isotype MC38 colorectal tumor in inbred C57BL/6 mice. 500,000 (5×10^5) MC38 cells were implanted subcutaneously in the right abdomen of each mouse. When the tumor grew to 40-80 mm^3 (on Day 6), the mice were grouped randomly into the above four groups. In Group III and IV, the mice were administered the compound of Example 1 (0.5 mg/kg) once a day for 20 consecutive days. During the treatment experiment in Group II and IV, the anti-mouse PD-1 (CD279) antibody (BioXcell) (5 mg/kg) was intraperitoneally injected (i.p.) to the mice bearing MC38 tumor on Day 6, 9, 12 and 15, respectively. […]
The tumor volume was measured with a caliper in three dimensions, and then calculated according to the following formula: tumor volume (mm^3)=1×w×h×0.5236, wherein 1 represents the length of the tumor, w represents the width of the tumor, and h represents the height of the tumor, in millimeters. […]

RORγ LBD = molecular target: T1, RORγ LBD (Homo sapiens, UniProt P51449); assay: LanthaScreen TR-FRET RORγ co-activation system, effect on in vitro activity of RORγ; type: biochemical
T1 construct: RORγ LBD (AB Vector); purchased AB Vector
T1 sequence (P51449 269-508 limits assumed): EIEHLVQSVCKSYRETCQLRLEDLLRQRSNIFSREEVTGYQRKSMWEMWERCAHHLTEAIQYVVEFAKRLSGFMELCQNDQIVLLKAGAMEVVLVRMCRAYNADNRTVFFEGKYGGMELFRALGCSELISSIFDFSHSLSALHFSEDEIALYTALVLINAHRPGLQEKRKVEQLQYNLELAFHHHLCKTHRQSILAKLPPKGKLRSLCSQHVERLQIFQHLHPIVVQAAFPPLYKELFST
Protocol: A complete buffer D (complete TR-FRET Coregulator) (Life Technologies) was formulated first, containing a final concentration of 5 mM DTT. The final concentration of DMSO was 2%. The test compound was serially diluted to 2× final concentration in the complete buffer D containing 2% of DMSO, and the maximum dose was 60 μm. The test compound was added to the test wells of a 384-well plate (PerkinElmer) in 10 μl/well. Two parallel control wells were set up for each test compound at the same concentration. 4×RORγ LBD (AB Vector) was formulated. RORγ LBD was diluted with the complete buffer D to a concentration of 1 ng/μL, and added to the test wells of the 384-well plate in 5 µl/well. The negative control well was 5 μL of complete buffer D without RORγ LBD. A mixed solution comprising 0.6 μM of fluorescein-D22 (4×) and 8 nM of terbium (Tb)-labeled anti-GST antibody (4×) (Life Technologies) was formulated with the complete buffer D, and 5 μL of the mixed solution was added to the 384-well plate. The total reaction system was 20 μL. The 384-well plate was gently shaken on a shaker, and incubated at room temperature in the dark for 2-4 hours.
Fluorescence readings were determined with Tecan Infinite M1000. The logarithmic curve of the ratio of the emission wavelength of 520 nm/495 nm to the concentration of the compound was plotted by GraphPad Prism 6.0 software. EC50 value of the test compound was calculated.

Row | SMILES | EC50 (IL-17A) | EC50 (RORγ LBD) | Emax (RORγ LBD) | Emax (IL-17A) | further results
1 | [2H]C([2H])(F)Cn1c(Cc2ccc(Cl)cc2C(F)(F)F)cc2cc(C(=O)N[C@@H](CO)c3ccc(S(=O)(=O)CC)cc3)ccc21 (single isomer, unassigned) [Example 1] | 22 nM | – | – | 88% | Vd/F ([1]; plasma): 0.648 L/kg; AUC ([1]; plasma): 40400 ng·h/mL; CL/F ([1]; plasma): 0.82 mL/min/kg; half-life ([1]; plasma): 9.08 h; Cmax ([1]; plasma): 3710 ng/mL; MRT ([1]; plasma): 12 h; Tumor growth inhibition rate TGI (MC38 colorectal tumor; 0.5 mg/kg oral in combination with anti-mouse PD-1 monoclonal antibody 5 mg/kg i.p.): 65.5%; Tumor growth inhibition rate TGI (MC38 colorectal tumor; administered alone, 0.5 mg/kg oral, once a day for 20 days): 22.5%
2 | [2H]C([2H])([2H])C([2H])([2H])S(=O)(=O)c1ccc([C@H](CO)NC(=O)c2ccc3c(c2)cc(Cc2ccc(Cl)cc2C(F)(F)F)n3CCF)cc1 (single isomer, unassigned) [Example 6] | 37 nM | – | – | 100% | Vd/F ([1]; in vivo): 0.575 L/kg; AUC ([1]; in vivo): 31600 ng·h/mL; CL/F ([1]; in vivo): 1.06 mL/min/kg; half-life ([1]; in vivo): 6.29 h; Cmax ([1]; in vivo): 2730 ng/mL; MRT ([1]; in vivo): 9.13 h
3 | [2H]C([2H])([2H])OC[C@H](NC(=O)c1ccc2c(c1)cc(Cc1ccc(Cl)cc1C(F)(F)F)n2CCF)c1ccc(S(=O)(=O)CC)cc1 [Example 8, 2-[[4-Chloro-2-(trifluoromethyl)phenyl]methyl]-N-[(1R)-1-(4-ethylsulfonylphenyl)-2-(trideuteromethoxy)ethyl]-1-(2-fluoroethyl)indole-5-carboxamide] | – | 34 nM | 85% | – | –
4 | [2H]C([2H])(C)n1c(Cc2ccc(Cl)cc2C(F)(F)F)cc2cc(C(=O)N[C@@H](CO)c3ccc(S(=O)(=O)CC)cc3)ccc21 [Example 11, 2-[[4-Chloro-2-(trifluoromethyl)phenyl]methyl]-1-(1,1-dideuteroethyl)-N-[(1R)-1-(4-ethylsulfonylphenyl)-2-hydroxyethyl]indole-5-carboxamide] | – | 21 nM | 84% | – | –
5 | [2H]C([2H])(F)Cn1c(Cc2ccc(Cl)cc2C(F)(F)F)cc2cc(C(=O)N[C@@H](CO)c3ccc(S(=O)(=O)CC)cn3)ccc21 [Example 13, 2-[[4-Chloro-2-(trifluoromethyl)phenyl]methyl]-1-(2,2-dideutero-2-fluoro-ethyl)-N-[(1R)-1-(5-ethylsulfonyl-2-pyridinyl)-2-hydroxy-ethyl]indole-5-carboxamide] | 22 nM | 9 nM | 77% | 88% | –

Now from value to molecule, other results behind:

Row | EC50 (IL-17A) | EC50 (RORγ LBD) | Emax (RORγ LBD) | SMILES | Emax (IL-17A) | further results
6 | – | 16 nM | 89% | [2H]C([2H])(c1cc2cc(C(=O)N[C@@H](CO)c3ccc(S(=O)(=O)CC)cc3)ccc2n1C1CC1)n1nccc1C(F)(F)F [Example 2, 1-Cyclopropyl-2-[dideutero-[5-(trifluoromethyl)pyrazol-1-yl]methyl]-N-[(1R)-1-(4-ethylsulfonylphenyl)-2-hydroxy-ethyl]indole-5-carboxamide] | – | –
7 | 103 nM | 17 nM | 98% | [2H]C([2H])(NC(=O)c1ccc2c(c1)cc(Cc1ccc(Cl)cc1C(F)(F)F)n2CCF)c1ccc(S(=O)(=O)CC)cc1 [Example 3, 2-[[4-Chloro-2-(trifluoromethyl)phenyl]methyl]-N-[dideutero-(4-ethylsulfonylphenyl)methyl]-1-(2-fluoroethyl)indole-5-carboxamide] | 102% | –
8 | 20 nM | 5 nM | 98% | [2H]C([2H])(NC(=O)c1ccc2c(c1)cc(Cc1ccccc1C(F)(F)F)n2C1CC1)c1ccc(S(=O)(=O)CC)cc1 [Example 4, 1-Cyclopropyl-N-[dideutero-(4-ethylsulfonylphenyl)methyl]-2-[[2-(trifluoromethyl)phenyl]methyl]indole-5-carboxamide] | 79% | –
9 | 32 nM | 9 nM | 73% | [2H]C([2H])(O)Cn1c(Cc2ccc(Cl)cc2C(F)(F)F)cc2cc(C(=O)N[C@@H](CO)c3ccc(S(=O)(=O)CC)cc3)ccc21 [Example 5, 2-[[4-Chloro-2-(trifluoromethyl)phenyl]methyl]-1-(2,2-dideutero-2-hydroxy-ethyl)-N-[(1R)-1-(4-ethylsulfonylphenyl)-2-hydroxy-ethyl]indole-5-carboxamide] | 82% | –
